Earlier results, collected in patent publication EP0495131B1, “AGENT FOR PREVENTING AND TREATING HEPATITIS” (priority 1990, dated 1992).

Tested on: hepatitis, especially B-type hepatitis
Conditions: percentage of patients in which antigen is converted into negative and antibody into positive; anti-virus agents for hepatitis

| SMILES | rate of the seroconversion (SC rate) |
| --- | --- |
| Nc1ncnc2c1ncn2[C@@H]1O[C@H](CO)[C@@H](O)[C@@H]1O [Ara-A, adenine arabinoside] | 0-30% |
| Nc1nc2c(ncn2COCCO)c(=O)[nH]1 [acyclovir] | about 27% |
